In US4248865A, “Novel aminoglycoside derivatives” (Shionogi & Co., Ltd., priority 1978, dated 1981) one finds MIC data, which are given here for three molecules.

Assay [1] deals with Pseudomonas aeruginosa PP-6. The assay is described as follows: MIC by agar dilution method, Pseudomonas aeruginosa PP-6. The settings on record: PP6, read-out: Minimum Inhibitory Concentration (MIC). Background: In agar dilution the substance is mixed into plates at graded concentrations.
Protocol: (§1) MIC was determined by the following agar dilution method.
(§2) One loopful of a strain of bacteria to be tested on agar slant was inoculated into a medium for growth of inoculum (Trypto Soy Broth; Eiken Chemical Co.) and incubated at 37° C. overnight.
(§3) A sample solution of aminoglycoside derivative was subjected to serial two-fold dilutions with sterile water. This diluted sample solutions were distributed to the Modified Mueller Hinton Agar medium (Nissui-seiyaku Co.), mixed gently and allowed to solidify.
(§4) One loopful of the bacterial suspension prepared in (1) was placed on the surface of the medium prepared in (2) containing the aminoglycoside derivative in various concentrations at 10^6 CFU/ml inoculum size.
In assay [2] the test system is Klebsiella pneumoniae K1-168. In words: MIC by agar dilution method, Klebsiella pneumoniae K1-168. The settings on record: K1168, read-out: Minimum Inhibitory Concentration (MIC).
Protocol: as §1, §2, §3, §4
The subject of assay [3] is Escherichia coli W-677/JR 762. In words: MIC by agar dilution method, Escherichia coli W-677/JR 762. The settings on record: W677/JR762, read-out: Minimum Inhibitory Concentration (MIC).
Protocol: as §1, §2, §3, §4

≈ marks a conversion by molar mass, not a printed value. Bounds are passed on as bounds.

Consider `NC[C@H]1O[C@H](O[C@H]2[C@H](O)[C@@H](O[C@H]3O[C@H](CO)[C@@H](O)[C@H](N)[C@H]3O)[C@H](N)C[C@@H]2N)[C@H](N)C[C@@H]1O` [TOB, tobramycin, reference compound], for which the MIC is greater than 100 µg/mL in assay [1], 100 µg/mL (≈ 214 µM) in assay [2] and 50 µg/mL (≈ 107 µM) in assay [3].
The like results for `NC[C@H]1O[C@H](O[C@H]2[C@H](O)[C@@H](O[C@H]3O[C@H](CO)[C@@H](O)[C@H](N)[C@H]3O)[C@H](NC3=NCC[C@@H]3O)C[C@@H]2N)[C@H](N)C[C@@H]1O` [[A], 1N-[(S)(-)-3-hydroxy-1-pyrrolin-2-yl]tobramycin] were, in that order, 3.1 µg/mL (≈ 5.63 µM), 3.1 µg/mL (≈ 5.63 µM) and 12.5 µg/mL (≈ 22.7 µM).
`NC[C@H]1O[C@H](O[C@H]2[C@H](O)[C@@H](O[C@H]3O[C@H](CO)[C@@H](O)[C@H](N)[C@H]3O)[C@H](NC3=NCCC[C@@H]3O)C[C@@H]2N)[C@H](N)C[C@@H]1O` [[B], 1N-[(S)(-)-3-hydroxy-3,4,5,6-tetrahydropyridin-2-yl]tobramycin]: the figures for the MIC in assay [1], in assay [2] and in assay [3] were 6.2 µg/mL (≈ 11 µM), 3.1 µg/mL (≈ 5.49 µM) and 12.5 µg/mL (≈ 22.1 µM), respectively.
